Experimental data taken from paper PMC5703966, “Systemic clearance and brain distribution of carbazole-based cyanine compounds as Alzheimer’s disease drug candidates” (Scientific Reports, 2017).
Read-outs that look alike come from different tables or passages of the source.

Experiments:
[1] = Liver microsomes stability with NADPH; format: in vitro ADME, mouse; conditions: for microsomal CLint at 1 μM: ICR/CD-1, liver microsomes, NADPH, read-out: Microsomes Cl int,app; for microsomal CLint at 1 μM / CLint scaled at 1 μM: pH 7.4; for CLint scaled at 1 μM: ICR/CD-1, mouse, liver microsomes, read-out: Microsomes Cl int,scaled; for Microsomes scaled Cl hep: well-stirred model; for Microsomes Cl u, int,app: Cl int,app / f u,mic
[2] = Plasma binding by RED device; format: in vitro ADME, mouse; conditions: for plasma binding: mice; for f u,plasma %: mouse plasma, RED device, 4 h, 37 °C; for all read-outs here: tested at 0.4 µM
Method: Nonspecific binding in plasma (f u, plasma), microsomes (f u, mic) and hepatocyte (f u, hep) were determined using the method seen in supplemental information (Supplemental Methods). […]
All validation compounds were incubated at 37 °C over 4 h, and in triplicate. For […]
plasma stability, 10 mM DMSO solutions of SLM and SLOH were diluted to 40 µM (10% DMSO). Plasma […]
shaking water bath (60 oscillations/min approx.). The assay was started by addition of 6 µL aliquots to […]
the plasma (final DMSO incubation concentration 0.1%). […]
MS/MS. Natural logarithm of peak area ratios (compound peak area normalized by IS peak area) were plotted against time and half-life calculated. […]
placed into the sample chamber (indicated by the red ring) with 400 µL of PBS into the adjacent chamber.
The plate was sealed with a self-adhesive lid and incubated at 37 °C on an orbital shaker (1.5 g approx.) for 4 h. Aliquots (100 µL) were removed from each side of the insert, and analyzed after protein precipitation using 4 folds acetonitrile (ACN) containing berberine chloride as internal standard (IS) by LC-MS/MS (Analytical me thod seen below). The experimental procedure outlined in the Thermo Scientific RED device systems brochure was adopted in the present study . […]

AD model mice = system: AD model mice; parameters: method as in PMID 28032988; conditions: cited from earlier work
Aβ(1–40) = system: Aβ(1–40); parameters: method as in PMID 22086555; conditions: cited from earlier work
[3] = Liver microsomes stability with NADPH; format: in vitro ADME; conditions: human; for CLint scaled at 1 μM / microsomal CLint at 1 μM: liver microsomes, pH 7.4; for CLint scaled at 1 μM: read-out: Microsomes Cl int,scaled; for Microsomes scaled Cl hep: well-stirred model; for Microsomes Cl u, int,app: Cl int,app / f u,mic; for microsomal CLint at 1 μM: NADPH, read-out: Microsomes Cl int,app
[4] = Stability in plasma, microsomes without cofactors and deactivated hepatocytes; format: in vitro ADME; conditions: ICR/CD-1, mouse and human; all species, 37 °C, more than 4 hours; read-out: half-life elimination (t 1/2) in plasma, microsomes and deactivated hepatocytes
Method: page 4: Supplemental Methods Blood-to-plasma ratio […] and incubated for an hour at 37 OC. At the end of the incubation period, plasma (CP) is separated from […] folds acetonitrile (ACN) containing berberine chloride as internal standard (IS) by LC-MS/MS (Analytical method seen below). The blood cell partitioning was calculated as follows. (1) Plasma, liver microsomes and hepatocyte binding by RED device The stability of the compounds in plasma, liver microsomes and hepatocyte were studied to ensure the reliability of the binding data. Hepatocyte was deactivated by leaving them on a bench for 2 days and going through a freeze thaw cycle thereafter. […] were inactivated. All validation compounds were incubated at 37 °C over 4 h, and in triplicate. For […] […] Natural logarithm of peak area ratios (compound peak area normalized by IS peak area) were plotted against time and half-life calculated. […] Aliquots (100 µL) were removed from each side of the insert, and analyzed after protein precipitation using 4 folds acetonitrile (ACN) containing berberine chloride as internal standard (IS) by LC-MS/MS (Analytical me thod seen below). […] In vitro stability in liver microsomes and hepatocytes Half-life (t1/2) of SLM or SLOH in liver microsomes was determined in duplicate. […]

| microsomal CLint at 1 μM ([1]; mouse) | CLint scaled at 1 μM [1] | Microsomes Cl u, int,scaled ([1]; mouse) | Microsomes scaled Cl hep ([1]; mouse) | Microsomes Cl u, int,app ([1]; mouse) | plasma binding [2] | f u,plasma % [2] | CLint scaled at 1 μM [3] | Microsomes scaled Cl hep [3] | Microsomes Cl u, int,app [3] | microsomal CLint at 1 μM [3] | half-life [4] | SMILES | effect on pathological symptom and memory deterioration (AD model mice) | affinity for Aβ(1–40) (Aβ(1–40)) |
| --- | --- | --- | --- | --- | --- | --- | --- | --- | --- | --- | --- | --- | --- | --- |
| 30 µL/min/mg | 110 ± 13 mL/min/kg | 680 ± 75.0^$$ mL/min/Kg | 18.3 ± 1.67 mL/min/kg | 0.170 ± 0.0200^$$ mL/min/mg | > 95% | 3.50 ± 0.700^$ % | 82 ± 13 mL/min/kg | 2 ± 0.333 mL/min/kg | 1.00 ± 0.160^$ mL/min/mg | 70 ± 10 µL/min/mg | > 24 h | COCCOCCn1c2ccccc2c2cc(/C=C/c3cc[n+](CCO)c4ccccc34)ccc21 [SLOH, (E)-1-(2-hydroxyethyl)-4-(2-(9-(2-(2-metho-xyethoxy)-ethyl)-9H-carbazol-3-yl)vinyl) quinolin-1-ium chloride] | alleviate the pathological symptom and memory deterioration | reasonably good affinity |
| 30 µL/min/mg | 130 ± 9 mL/min/kg |  | 16 ± 0.833 mL/min/kg | 0.300 ± 0.0200^$$ mL/min/mg | > 95% | 1.70 ± 0.380^$ % | 140 ± 19 mL/min/kg | 1.67 ± 0.167 mL/min/kg | 1.50 ± 0.200^$ mL/min/mg | 110 ± 20 µL/min/mg | > 24 h | COCCOCCn1c2ccccc2c2cc(/C=C/c3cc[n+](C)c4ccccc34)ccc21.[I-] [SLM, (E)-4-(2-(9-(2-(2-methoxyethoxy)ethyl)-9H-carbazol-3-yl)-vinyl)-1-methyl-quinolin-1-iumiodide] | alleviate the pathological symptom and memory deterioration | reasonably good affinity |
